The results in this text go back to ChEMBL document CHEMBL1144546, “Design and synthesis of rho kinase inhibitors (III)” (Bioorg Med Chem, 2007).

The target in data set [1] is T1, Rho-associated protein kinase (Homo sapiens, UniProt O75116+Q13464).
Data set [2] has as its target Rho-associated protein kinase 2 (Rattus norvegicus) (UniProt Q62868). In words: Ex vivo inhibition of Rho kinase activity in Sprague-Dawley rat serum at 30 mg/kg, po after 8 hrs. Format: organism-based. On the set-up: dose 30 mg/kg; scale not given: the % may be the effect or the level left.
The target is the same in data set [3]. The data set can be described thus: Ex vivo inhibition of Rho kinase activity in Sprague-Dawley rat serum at 30 mg/kg, po after 1 hrs. Format: organism-based. On the set-up: dose 30 mg/kg; scale not given: the % may be the effect or the level left.
Data set [4] addresses T1, Rho-associated protein kinase. In words: Inhibition of TPA-induced Rho kinase dependent MBS phosphorylation in MDCK 2 cells. To be noted: Canis lupus familiaris. Format: functional, cell-based.
The target of data set [5] is Rho-associated protein kinase 2 (Rattus norvegicus) (UniProt Q62868). In words: Ex vivo inhibition of Rho kinase activity in Sprague-Dawley rat serum at 30 mg/kg, po after 4 hrs. Format: organism-based. On the set-up: dose 30 mg/kg; scale not given: the % may be the effect or the level left.
Rho-associated protein kinase 2 (Rattus norvegicus), sequence (Q62868 whole entry, looked up): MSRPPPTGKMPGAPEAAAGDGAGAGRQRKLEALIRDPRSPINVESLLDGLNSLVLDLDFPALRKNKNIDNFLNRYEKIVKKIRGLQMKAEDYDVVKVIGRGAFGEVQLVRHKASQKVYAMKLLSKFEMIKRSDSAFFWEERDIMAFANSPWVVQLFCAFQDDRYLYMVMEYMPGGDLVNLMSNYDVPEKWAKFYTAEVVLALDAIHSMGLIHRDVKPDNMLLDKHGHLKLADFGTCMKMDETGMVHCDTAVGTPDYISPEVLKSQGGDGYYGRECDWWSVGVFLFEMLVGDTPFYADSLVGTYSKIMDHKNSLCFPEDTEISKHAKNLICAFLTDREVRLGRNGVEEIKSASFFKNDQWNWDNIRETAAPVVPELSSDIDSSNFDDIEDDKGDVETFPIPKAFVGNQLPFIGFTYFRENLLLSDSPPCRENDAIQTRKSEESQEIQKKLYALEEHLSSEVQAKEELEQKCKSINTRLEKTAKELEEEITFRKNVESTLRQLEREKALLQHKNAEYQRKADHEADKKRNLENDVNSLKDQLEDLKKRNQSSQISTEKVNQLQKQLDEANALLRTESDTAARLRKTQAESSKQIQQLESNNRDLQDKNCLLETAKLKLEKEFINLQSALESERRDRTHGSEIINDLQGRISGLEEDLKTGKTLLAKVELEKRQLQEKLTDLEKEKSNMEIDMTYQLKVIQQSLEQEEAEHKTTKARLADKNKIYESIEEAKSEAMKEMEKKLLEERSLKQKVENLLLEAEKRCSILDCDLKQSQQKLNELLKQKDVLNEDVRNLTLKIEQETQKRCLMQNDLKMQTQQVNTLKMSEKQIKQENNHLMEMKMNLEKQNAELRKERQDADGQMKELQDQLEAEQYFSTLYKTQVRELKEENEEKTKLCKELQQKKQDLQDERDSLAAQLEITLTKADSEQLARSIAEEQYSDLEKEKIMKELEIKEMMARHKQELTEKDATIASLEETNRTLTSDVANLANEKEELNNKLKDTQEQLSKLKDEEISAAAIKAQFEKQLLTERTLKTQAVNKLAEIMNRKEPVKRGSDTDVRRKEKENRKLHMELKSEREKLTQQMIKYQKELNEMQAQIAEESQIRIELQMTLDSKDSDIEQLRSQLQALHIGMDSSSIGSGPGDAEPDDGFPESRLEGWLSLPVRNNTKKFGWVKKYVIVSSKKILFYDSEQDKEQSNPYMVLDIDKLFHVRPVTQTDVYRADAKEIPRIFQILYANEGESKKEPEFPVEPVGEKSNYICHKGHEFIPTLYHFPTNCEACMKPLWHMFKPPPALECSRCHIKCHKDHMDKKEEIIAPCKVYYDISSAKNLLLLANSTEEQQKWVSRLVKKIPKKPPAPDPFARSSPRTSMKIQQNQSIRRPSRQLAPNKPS
A short description of data set [6]: Metabolic stability in rat liver microsome at 10 uM after 30 mins. To be noted: liver microsomes.
A short description of data set [7]: Inhibition of MCP1-induced chemotaxis in U937 cells overexpressing CCR2. To be noted: u-937.

T1 sequence (O75116 whole entry, looked up): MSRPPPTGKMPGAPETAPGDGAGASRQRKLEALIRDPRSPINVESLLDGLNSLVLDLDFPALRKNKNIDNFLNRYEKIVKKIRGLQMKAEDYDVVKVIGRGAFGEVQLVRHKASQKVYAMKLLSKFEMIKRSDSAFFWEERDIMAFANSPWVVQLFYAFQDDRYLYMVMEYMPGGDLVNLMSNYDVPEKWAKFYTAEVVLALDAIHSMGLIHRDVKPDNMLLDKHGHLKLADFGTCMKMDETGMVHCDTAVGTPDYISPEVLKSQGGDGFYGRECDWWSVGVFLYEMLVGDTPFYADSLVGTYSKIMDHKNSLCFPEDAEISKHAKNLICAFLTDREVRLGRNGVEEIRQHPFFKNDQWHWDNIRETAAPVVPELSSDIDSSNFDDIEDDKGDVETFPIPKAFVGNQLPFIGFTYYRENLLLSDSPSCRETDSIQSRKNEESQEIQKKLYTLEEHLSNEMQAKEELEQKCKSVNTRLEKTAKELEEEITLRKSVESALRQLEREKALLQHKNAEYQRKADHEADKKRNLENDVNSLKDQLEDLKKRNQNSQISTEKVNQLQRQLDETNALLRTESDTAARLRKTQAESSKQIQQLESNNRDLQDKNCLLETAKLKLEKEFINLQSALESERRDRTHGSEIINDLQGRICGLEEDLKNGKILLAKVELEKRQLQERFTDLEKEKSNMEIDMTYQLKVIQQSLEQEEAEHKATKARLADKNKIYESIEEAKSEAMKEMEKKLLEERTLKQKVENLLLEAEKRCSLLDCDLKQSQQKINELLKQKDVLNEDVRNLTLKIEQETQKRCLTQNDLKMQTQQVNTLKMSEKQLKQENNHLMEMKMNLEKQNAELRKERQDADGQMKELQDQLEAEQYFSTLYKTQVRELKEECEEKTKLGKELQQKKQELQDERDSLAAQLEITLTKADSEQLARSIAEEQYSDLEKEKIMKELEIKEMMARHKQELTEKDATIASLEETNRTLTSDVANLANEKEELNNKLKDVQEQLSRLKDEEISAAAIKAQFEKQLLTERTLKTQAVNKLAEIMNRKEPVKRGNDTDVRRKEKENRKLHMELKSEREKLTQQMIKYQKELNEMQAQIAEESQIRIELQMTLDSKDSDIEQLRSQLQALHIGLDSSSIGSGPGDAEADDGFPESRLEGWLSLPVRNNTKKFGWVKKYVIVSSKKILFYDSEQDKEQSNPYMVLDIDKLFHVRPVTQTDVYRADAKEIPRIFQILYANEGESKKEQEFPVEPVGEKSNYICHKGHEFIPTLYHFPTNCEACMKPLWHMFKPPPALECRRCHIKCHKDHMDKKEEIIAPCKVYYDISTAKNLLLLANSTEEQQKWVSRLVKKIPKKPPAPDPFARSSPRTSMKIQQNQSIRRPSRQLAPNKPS
T1 sequence (Q13464 whole entry, looked up): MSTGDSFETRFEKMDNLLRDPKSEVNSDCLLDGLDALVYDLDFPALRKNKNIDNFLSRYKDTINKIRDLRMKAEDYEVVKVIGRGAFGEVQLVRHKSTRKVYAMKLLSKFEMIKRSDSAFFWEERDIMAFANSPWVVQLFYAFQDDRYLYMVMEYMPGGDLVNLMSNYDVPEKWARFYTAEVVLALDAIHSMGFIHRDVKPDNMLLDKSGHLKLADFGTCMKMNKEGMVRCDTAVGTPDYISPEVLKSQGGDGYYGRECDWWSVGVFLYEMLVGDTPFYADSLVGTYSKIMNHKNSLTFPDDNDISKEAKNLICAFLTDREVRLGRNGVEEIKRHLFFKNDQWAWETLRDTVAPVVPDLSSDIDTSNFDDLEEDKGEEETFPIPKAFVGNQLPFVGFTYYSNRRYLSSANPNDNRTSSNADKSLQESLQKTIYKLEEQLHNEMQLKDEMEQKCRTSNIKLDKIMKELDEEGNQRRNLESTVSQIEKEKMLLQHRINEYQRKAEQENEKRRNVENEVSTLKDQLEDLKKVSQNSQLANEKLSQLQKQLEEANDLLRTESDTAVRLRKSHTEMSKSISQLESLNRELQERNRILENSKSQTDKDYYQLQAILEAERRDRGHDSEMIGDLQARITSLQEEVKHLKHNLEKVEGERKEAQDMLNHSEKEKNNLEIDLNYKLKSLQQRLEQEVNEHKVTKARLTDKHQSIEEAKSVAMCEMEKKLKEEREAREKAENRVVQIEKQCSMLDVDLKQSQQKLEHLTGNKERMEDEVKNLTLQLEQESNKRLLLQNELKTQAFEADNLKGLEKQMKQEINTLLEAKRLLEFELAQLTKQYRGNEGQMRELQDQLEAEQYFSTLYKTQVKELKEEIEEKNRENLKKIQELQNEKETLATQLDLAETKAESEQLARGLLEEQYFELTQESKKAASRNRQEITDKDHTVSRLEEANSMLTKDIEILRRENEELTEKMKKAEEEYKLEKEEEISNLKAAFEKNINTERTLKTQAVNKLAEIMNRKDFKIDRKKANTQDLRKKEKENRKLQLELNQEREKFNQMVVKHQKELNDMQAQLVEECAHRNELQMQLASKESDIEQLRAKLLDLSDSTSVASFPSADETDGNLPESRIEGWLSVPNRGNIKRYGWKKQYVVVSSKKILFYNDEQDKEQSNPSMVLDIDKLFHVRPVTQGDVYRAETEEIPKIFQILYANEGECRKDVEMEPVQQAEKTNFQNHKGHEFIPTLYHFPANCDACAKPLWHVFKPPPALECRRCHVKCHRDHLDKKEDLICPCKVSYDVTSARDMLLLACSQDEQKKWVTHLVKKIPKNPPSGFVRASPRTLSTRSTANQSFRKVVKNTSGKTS

Consider `Clc1cccc(CN2CCC(Nc3cccc4cnccc34)C2)c1` (stereo unspecified), for which, in data set [1], the IC50 was found to be 65 nM. The same measure, in the same setting: the same measure for `CC(C)CCN1CCCC(Nc2cccc3cnccc23)C1` (stereo unspecified): 270 nM; for `c1cc(N[C@H]2CC[C@H](NC3CC3)CC2)c2ccncc2c1`: 70 nM. Molecule `CC(C)CN1CCC(Nc2cccc3cnccc23)CC1` gave an IC50 in data set [1] of 210 nM. The same measure, in the same setting: the value for `c1ccc(CCN[C@H]2CC[C@@H](Nc3cccc4cnccc34)CC2)cc1` was 580 nM; that for `c1cc(N[C@H]2CC[C@@H](NC3CC3)CC2)c2ccncc2c1` was 195 nM.

`Clc1cccc(CN2CCCC(Nc3cccc4cnccc34)C2)c1` (stereo unspecified) came in with an IC50 in data set [1] of 265 nM. In turn, `Clc1ccc(CN2CCC(Nc3cccc4cnccc34)C2)cc1` (stereo unspecified) yielded a half-inhibitory concentration (IC50) in data set [1] of 65 nM.

Turning to `Nc1ccc(CN2CCC(Nc3cccc4cnccc34)C2)cc1` (stereo unspecified), in data set [1], the half-maximal inhibitory concentration (IC50) is given as 235 nM. For the molecule `Nc1cccc(CN2CC[C@@H](Nc3cccc4cnccc34)C2)c1`, the Activity in data set [2] was 26%; in data set [3] it was 52%; in data set [4] it was “Dose-dependent effect”; in data set [5], 42%. This molecule also displayed an IC50 in data set [1] of 25 nM. Molecule `c1ccc(CCN[C@H]2CC[C@H](Nc3cccc4cnccc34)CC2)cc1` displayed an IC50 in data set [1] of 440 nM. In data set [1], `Clc1ccccc1CN1CCCC(Nc2cccc3cnccc23)C1` (stereo unspecified) gave an IC50 of 210 nM. As for `Nc1ccccc1CN1CCC(Nc2cccc3cnccc23)C1` (stereo unspecified), the half-maximal inhibitory concentration (IC50) in data set [1] is recorded as 205 nM. Same read-out and setting: the same measure for `Clc1ccccc1CN1CCC(Nc2cccc3cnccc23)C1` (stereo unspecified): 100 nM. In the case of `Fc1cccc(F)c1CN1CCC(Nc2cccc3cnccc23)C1` (stereo unspecified), the 50% inhibitory concentration (IC50) in data set [1] stood at 75 nM. The same measure, in the same setting: the same measure for `c1ccc(CN2CCC(Nc3cccc4cnccc34)CC2)cc1`: 140 nM. Same read-out and setting: the value for `CCCN[C@H]1CC[C@@H](Nc2cccc3cnccc23)CC1` was 180 nM. In data set [1], `Nc1cccc(CN2CCC(Nc3cccc4cnccc34)C2)c1` (stereo unspecified) registered a 50% inhibitory concentration (IC50) of 275 nM. The same molecule displayed a fraction remaining at 0.5 h, 10 µM in data set [6] of 67%. In the case of `CCCN1CCC(Nc2cccc3cnccc23)CC1`, in data set [1], the 50% inhibitory concentration (IC50) is 345 nM. Still for that read-out and setting: the value for `Fc1ccc(CN2CCC(Nc3cccc4cnccc34)C2)cc1` (stereo unspecified) was 95 nM.

In data set [7], `O=S(=O)(c1cccc2cnccc12)N1CCCNCC1` [FASUDIL] gave a concentration for half-maximal inhibition (IC50) of 35000 nM. Turning to `Nc1cccc(CN2CC[C@H](Nc3cccc4cnccc34)C2)c1`, the Activity in data set [2] is 0%; in data set [3], 30%; in data set [5], 17%. The molecule further gave a concentration for half-maximal inhibition (IC50) in data set [1] of 310 nM. As to `CCCN[C@H]1CC[C@H](Nc2cccc3cnccc23)CC1`, the half-maximal inhibitory concentration (IC50) in data set [1] turned out to be 180 nM.
